Results on three substances are retold here after US11654097B2, “Peptide having activities of skin whitening and uses thereof” (CAREGEN CO., LTD., priority 2019, dated 2023).

Test [1] has as its target T1, tyrosinase (Mus musculus, UniProt P11344).
T1 construct: The cells were lysed by adding a 0.1 M sodium phosphate buffer (pH 6.8, lysis buffer) containing 1% triton X-100; endogenous in cells; host or cells: B16F10 mouse melanoma cells stimulated with alpha-MSH
T1 sequence (P11344 19-533): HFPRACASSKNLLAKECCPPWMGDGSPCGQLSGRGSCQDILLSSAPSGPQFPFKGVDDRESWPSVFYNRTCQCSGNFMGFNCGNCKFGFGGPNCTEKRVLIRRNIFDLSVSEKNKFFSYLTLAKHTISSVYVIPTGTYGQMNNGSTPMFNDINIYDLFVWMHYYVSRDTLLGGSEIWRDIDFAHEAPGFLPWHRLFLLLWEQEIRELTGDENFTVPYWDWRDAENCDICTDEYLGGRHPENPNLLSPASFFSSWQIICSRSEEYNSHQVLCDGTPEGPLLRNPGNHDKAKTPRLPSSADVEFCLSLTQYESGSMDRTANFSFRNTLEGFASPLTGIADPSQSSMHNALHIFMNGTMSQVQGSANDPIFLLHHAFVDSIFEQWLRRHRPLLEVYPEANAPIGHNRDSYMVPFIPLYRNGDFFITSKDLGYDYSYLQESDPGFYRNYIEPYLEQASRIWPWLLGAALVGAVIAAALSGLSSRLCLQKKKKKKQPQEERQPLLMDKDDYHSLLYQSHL
As to the kind of experiment: Inhibitory effect on tyrosinase activity in lysate of treated B16F10 cells (L-DOPA). The class given is cell-based. Particulars: B16F10, 200 ng/ml α-MSH, peptide 1-160 μM, 72 hours, absorbance at 475 nm. The procedure: A mouse melanoma cell B16F10 was seeded in a 6-well plate at a density of 5×10^4 cells/well, followed by incubation for 16 hours. Thereafter, the culture medium was replaced by a medium supplemented with 2% serum, and then 200 ng/ml of α-MSH was added thereto, together with each peptide of an amino acid sequence of SEQ ID NO: 1, 2, or 3 at a concentration of 1 μM, 10 μM, 20 μM, 40 μM, 60 μM, 80 μM or 160 μM, respectively, followed by incubation for 72 hours. The 6-well plate was placed on ice, and then washed with cold PBS. The cells were lysed by adding a 0.1 M sodium phosphate buffer (pH 6.8, lysis buffer) containing 1% triton X-100. Thereafter, the cells in the well plate were scraped, and collected in a 1.5 ml tube, followed by vortexing. Centrifugation was carried out at 15,000 rpm for 10 minutes to obtain a supernatant. Thereafter, proteins in the supernatant was quantified to adjust the protein content at a predetermined amount. A buffer was added thereto, and total 90 μl of the sample was dispensed in a 96-well plate.
Thereafter, 20 μL of 10 mM L-DOPA was added to each sample, and incubated at 37° C. for 1 hour. Then, absorbance at 475 nm was measured. In addition, an untreated group (Con) was used as a control, and only α-MSH-treated group as a negative control and Arbutin (200 μM or 500 μM) and α-MSH-treated group as a positive control were used.

Test [2] relates to mouse melanoma cell B16F10. As to the kind of experiment: Inhibitory effect on melanin production in α-MSH-stimulated B16F10 cells. The class given is cell-based. The conditions noted are these: B16F10, 200 ng/ml α-MSH, peptide 10, 50, 100 or 200 μM, 72 hours, absorbance at 450 nm. The procedure: A mouse melanoma cell B16F10 was seeded in a 6-well plate at a density of 5×10^4 cells/well, followed by incubation for 16 hours. Thereafter, the culture medium was replaced by a medium supplemented with 2% serum, and then 200 ng/ml of α-melanocyte-stimulating hormones (α-MSH) was added thereto to stimulate melanin production, together with each peptide of an amino acid sequence of SEQ ID NO: 1, 2, or 3 at a concentration of 10 μM, 50 μM, 100 μM, or 200 μM, respectively, followed by incubation for 72 hours. Thereafter, the incubated cells were dissolved in 1 N NaOH, and absorbance at 450 nm was measured. Moreover, an untreated group (Con) was used as a control, and only an α-MSH-treated group as a negative control and a known skin-whitening agent Arbutin (200 μM, 500 μM) and an α-MSH-treated group as a positive control were used.

The subject of test [3] is TRP-1. Nature of the test: Expression of melanin production-associated protein (Western blotting) in B16F10 cells. The class given is cell-based, mouse. Particulars: B16F10, 200 ng/ml α-MSH, peptide 10-200 μM, 72 hours. The method, then: (§1) A mouse melanoma cell B16F10 was seeded in a 6-well plate at a density of 5×10^4 cells/well, followed by incubation for 16 hours. Thereafter, the culture medium was replaced by a medium supplemented with 2% serum, and then 200 ng/ml of α-MSH was added thereto, together with each peptide of an amino acid sequence of SEQ ID NO: 1, 2, or 3 at a concentration of 10 μM, 50 μM, 100 μM, or 200 μM, respectively, followed by incubation for 72 hours. Thereafter, the cultured cells were lysed, and then subjected to Western blotting using antibodies (santacruz biotechnology, USA) against Mlph, Rab27a, Tyrosinase, MITF, and TRP-1. In addition, a control, a negative control, and a positive control were used in the same manner as in Example 2.

For test [4], the system named is MITF. The description is as above. The class given is cell-based, mouse. The conditions noted are these: B16F10, 200 ng/ml α-MSH, peptide 10-200 μM, 72 hours. The procedure:
as §1

Test [5] has as its system tyrosinase. Described as above. The test is classed as cell-based, mouse. The conditions noted are these: B16F10, 200 ng/ml α-MSH, peptide 10-200 μM, 72 hours. The method, then: as §1
For test [6], the system named is MITF. As to the kind of experiment: Expression of melanin production-associated gene (RT-PCR) in B16F10 cells. The class given is cell-based, mouse. Particulars: B16F10, 200 ng/ml α-MSH, peptide 10-200 μM, 72 hours. The method, then: (§2) A mouse melanoma cell B16F10 was seeded in a 6-well plate at a density of 5×10^4 cells/well, followed by incubation for 16 hours. Thereafter, the culture medium was replaced by a medium supplemented with 2% serum, and then 200 ng/ml of α-MSH was added thereto, together with each peptide of an amino acid sequence of SEQ ID NO: 1, 2, or 3 at a concentration of 10 μM, 50 μM, 100 μM, or 200 μM, respectively, followed by incubation for 72 hours. mRNAs were extracted from the cultured cells, and the extracted mRNAs were reverse transcribed using a cDNA synthesis kit & PCR pre-mix (Intron, Korea), thereby synthesizing cDNA, respectively. Thereafter, a polymerase chain reaction (PCR) was carried out using each cDNA and Rab27a, Melanophilin (Mlph), myosin VA, MITF, Tyrosinase, and TRP1 primers. Moreover, a control, a negative control, and a positive control were used in the same manner as in Example 2, and nucleotide sequences of the primers used herein are the same as in Table 3 below.

Test [7] has as its system tyrosinase. The description is as above. The class given is cell-based, mouse. Particulars: B16F10, 200 ng/ml α-MSH, peptide 10-200 μM, 72 hours. The method, then:
as §2

Test [8] relates to Mlph. The description is as above. The test is classed as cell-based, mouse. Particulars: B16F10, 200 ng/ml α-MSH, peptide 10-200 μM, 72 hours. The method, then: as §2
Test [9] concerns Rab27a. Nature of the test: Expression of melanin production-associated protein (Western blotting) in B16F10 cells. The test is classed as cell-based, mouse. Particulars: B16F10, 200 ng/ml α-MSH, peptide 10-200 μM, 72 hours. The method, then:
as §1

For test [10], the system named is Mlph. The test is described as above. The class given is cell-based, mouse. The conditions noted are these: B16F10, 200 ng/ml α-MSH, peptide 10-200 μM, 72 hours. The method, then: as §1
Test [11] relates to TRP1. As to the kind of experiment: Expression of melanin production-associated gene (RT-PCR) in B16F10 cells. The class given is cell-based, mouse. The conditions noted are these: B16F10, 200 ng/ml α-MSH, peptide 10-200 μM, 72 hours. The method, then: as §2
Test [12] has as its system Rab27a. The test is described as above. The class given is cell-based, mouse. The conditions noted are these: B16F10, 200 ng/ml α-MSH, peptide 10-200 μM, 72 hours. The procedure:
as §2

The test system of test [13] is myosin VA. The test is described as above. Particulars: B16F10, 200 ng/ml α-MSH, peptide 10-200 μM, 72 hours. The class given is cell-based, mouse. The procedure:
as §2

Consider FHFIPNW [SEQ ID NO: 2], for which, in [1], the tyrosinase activity result is recorded as “inhibited in a concentration-dependent manner”. Further, the melanin production entry in test [2] is recorded as “reduced in a concentration-dependent manner”. For the same substance, in test [3], the “expression of TRP-1 protein” value is “inhibited”. In [4], the “expression of MITF protein” value is on record as “inhibited”. Further, in [5], the “expression of Tyrosinase protein” value is listed as “inhibited”. In addition, the “expression of MITF gene” value in test [6] was “inhibited”. The “expression of tyrosinase gene” value in [7] is on record as “inhibited”. The “expression of Mlph gene” value in [8] is listed as “inhibited”.

Consider WPFLRP [SEQ ID NO: 3], for which, in test [1], the tyrosinase activity entry was “inhibited in a concentration-dependent manner”. The melanin production entry in test [2] was “reduced in a concentration-dependent manner”. Besides, the “expression of MITF protein” value in test [4] is given as “inhibited”. Further, in test [5], the “expression of Tyrosinase protein” value is “inhibited”. Also, the “expression of Rab27a protein” value in test [9] was “inhibited”. Further, in test [10], the “expression of Mlph protein” value is “inhibited”. In addition, in test [11], the “expression of TRP1 gene” value is on record as “inhibited”. In addition, the “expression of MITF gene” value in test [6] is reported as “inhibited”. Also, the “expression of tyrosinase gene” value in test [7] is on record as “inhibited”. Further, in test [12], the “expression of Rab27a gene” value is “inhibited”. The “expression of Mlph gene” value in test [8] was “inhibited”. In addition, the “expression of myosin VA gene” value in [13] is “inhibited”.

Turning to LRKRKRRFWVL [SEQ ID NO: 1], in test [1], the tyrosinase activity result is “inhibited in a concentration-dependent manner”. Besides, in test [2], the melanin production result is on record as “reduced in a concentration-dependent manner”. In addition, the “expression of MITF protein” value in [4] is listed as “inhibited”. The “expression of Tyrosinase protein” value in [5] is “inhibited”. In [9], the “expression of Rab27a protein” value was “inhibited”. Further, the “expression of Mlph protein” value in test [10] is “inhibited”. Further, the “expression of TRP1 gene” value in test [11] is listed as “inhibited”. Also, the “expression of MITF gene” value in test [6] was “inhibited”. Moreover, in test [7], the “expression of tyrosinase gene” value was “inhibited”. In [12], the “expression of Rab27a gene” value is “inhibited”. For the same substance, in test [13], the “expression of myosin VA gene” value is recorded as “inhibited”.
